{
  "source": "patent US7273848B2",
  "about": "“Apolipoprotein A-I agonists and their use to treat dyslipidemic disorders” (priority 1997, dated 2007)",
  "system": "HDL cholesterol",
  "experiment": "HDL cholesterol in rabbits after injection of phospholipid/peptide complex",
  "type": "in vivo, rabbit",
  "details": "10 mg/kg i.v. as phospholipid complex",
  "experimental": "Small discoidal particles consisting of phospholipid (DPPC) and peptide 146 (SEQ ID NO:146) were prepared following the cholate dialysis method. The phospholipid was dissolved in chloroform and dried under a stream of nitrogen. The peptide was dissolved in buffer (saline) at a concentration of 1-2 mg/ml. The lipid film was redissolved in buffer containing cholate (43° C.) and the peptide solution was added at a 3-1 phospholipid/peptide ratio. The mixture was incubated overnight at 43° C. and then dialyzed at 43° C. (24 hr.), room temperature (24 hr.) and 4° C. (24 hr.), with three changes of buffer (large volumes) at temperature point. The complexes were filter sterilized (0.22μ) for injection and storage at 4° C.\nMale New Zealand White rabbits (2.5-3 kg) were injected intravenously with a dose of phospholipid/peptide complex (8 mg/kg bodyweight peptide 146 (SEQ ID NO:146) or 10 mg/kg bodyweight ApoA-I, expressed as peptide or protein content) in a single bolus injection not exceeding 10-15 ml. The animals were slightly sedated before the manipulations. Blood samples (collected on EDTA) were taken before and 5, 15, 30, 60, 240 and 1440 minutes after injection. The hematocrit (Hct) was determined for each sample. Samples were aliquoted and stored at −20° C. before analysis.\nPlasma Lipids. The total plasma cholesterol, plasma triglycerides and plasma phospholipids were determined enzymatically using commercially available assays according to the manufacturer's protocols (Boehringer Mannheim, Mannheim, Germany and Biomerieux, 69280, Marcy-l'étoile, France).\nLipoprotein Profiles. The plasma lipoprotein profiles of the fractions obtained after the separation of the plasma into its lipoprotein fractions were determined by spinning in a sucrose density gradient. The fractions were collected and in each individual fraction the phospholipid and cholesterol content was measured enzymatically.",
  "data": [
    {"substance": "Native ApoA-I: ApoA-I (isolated from human plasma), used as positive control; injected as phospholipid complex in rabbits", "values": [
      {"measurement": "Increase in HDL Cholesterol (%)", "setting": "5 min.", "value": 19.3, "unit": "%"},
      {"measurement": "Increase in HDL Cholesterol (%)", "setting": "15 min.", "value": 16, "unit": "%"},
      {"measurement": "Increase in HDL Cholesterol (%)", "setting": "60 min.", "value": 15.8, "unit": "%"},
      {"measurement": "Increase in HDL Cholesterol (%)", "setting": "240 min.", "value": "−24.1", "unit": "%"}
    ]}
  ]
}
